In ChEMBL document CHEMBL1140173, “Clerodane diterpenoids with NGF-potentiating activity from Ptychopetalum olacoides” (J Nat Prod, 2008):
Calls of active or inactive are those of the source. No cut-off for these calls is given here.

Columns and labels:
PC-12 [1] = test: Induction of neurite outgrowth in rat PC12 cells in absence of nerve growth factor at 0.1 to 10.0 uM; type: functional, cell-based
PC-12 [2] = test: Induction of neurite outgrowth in rat PC12 cells in presence of nerve growth factor at 0.1 to 10.0 uM; type: functional, cell-based

Compound	Activity (PC-12 [1])	Activity (PC-12 [2])
CC1=CCC[C@@H]2[C@]3(CCc4ccoc4)C(=O)O[C@H](C[C@@]12C)[C@H]3C	inactive	inactive
CO[C@H]1O[C@@H]2C[C@@]3(C)C(C)=CCC[C@@H]3[C@@]1(CCc1ccoc1)[C@@H]2C	inactive	inactive
